Data published in patent publication US9931335B2, “Desethylhydroxychloroquine for the treatment of diseases associated with inflammation” (The Board of Trustees of the Leland Stanford Junior …, priority 2013, dated 2018).
Where two headings read alike, the source gives them in different places.

Columns and labels:
ARPE-19 cells = tested on: ARPE-19 cells
Experimental: The major serious risk to long term administration of hydroxychloroquine is retinal accumulation and subsequent ocular toxicity (Terahi et al, 2008. Semin Opthal. (3):201-208. PMID). The ocular deposition of HCQ, DHCQ, and BDCQ was evaluated by direct retinal cellular toxicity by incubating equivalent concentrations of these molecules with the retinal pigmented epithelial cell line ARPE-19. ARPE-19 is a human retinal pigment epithelial cell line with differentiated properties (Dunn et al., Exp Eye Res. 1996 62(2):155-69). ARPE-19 cells were grown to 90% confluence, and then exposed to 10 µg/ml of HCQ, DHCQ, BDCQ, or vehicle control for 24 hours, following which microscopic analysis and photomicroscopy was performed at 40× power.
As described above, ARPE-19 cells were grown to 90% confluence then exposed to 10 μg/ml HCQ, DHCQ, BDCQ, or vehicle control for 24 hours followed by quantitation of cell death by lactate dehydrogenase (LDH) release assay (Abcam).

[1] = tested on: TNF production by human peripheral blood mononuclear cells (PBMCs); assay: LPS-stimulated TNF production by human PBMCs (ELISA); type: cell-based; conditions: LPS 10 μg/ml, 10, 25 and 50 μM compound, 14 hours; vs LPS alone
Experimental: DHCQ reduced the production of the pro-inflammatory cytokine tumor necrosis factor (TNF) by human peripheral blood mononuclear cells (PBMCs) in response to pro-inflammatory lipopolysaccharide (LPS) stimulation (FIG. 10). Human PBMCs were isolated using Ficoll, 200,000 PBMCs were added to each well of a 96-well plate, and stimulated with LPS 10 μg/ml in the presence of a range of concentrations from 0 to 50 μM DHCQ, or 0 to 50 μM HCQ, for 14 hours, following which culture supernatants were collected and TNF measured by ELISA. Assays were run in triplicate.
Isolation of human PBMCs and monocytes. The Ficoll-Paque™ Plus (Cat; 17-1440-03GE Healthcare) was used to isolate human peripheral blood mononuclear cells (PBMCs) from blood collected from healthy donors. For cell culture, the isolated PBMCs were resuspended in culture medium (RPM11640) containing 10% FCS and antibiotics (penicillin 100 IU/mL and streptomycin 100 μg/mL). Monocyte Isolation Kit II (Cat; 130-091-153, Miltenyi Biotec) was used to isolate monocytes from the suspension of human PBMCs.
Stimulation assays. […]
Readout. […] For each assay, a parallel well treated identically was prepared and level of LDH measured to assure no evidence of cell death was induced by drug treatment.

[2] = tested on: high-fat diet-induced NASH in C57BL/6 mice; assay: High fat diet-induced NAFLD/NASH in mice, prevention; type: in vivo, mouse; conditions: for liver score (NASH histology): 100 mg/kg/day from start of high-fat diet, vs vehicle (DHCQ P<0.001, HCQ P<0.05)
Experimental: To evaluate the effect of DHCQ and HCQ on an animal model of non-alcoholic fatty liver disease (NAFLD) which can lead to the development of NASH, C57BL/6 mice (8 per group) were fed a high-fat “western-style” diet (60% caloric content from fat; Taconic) for 6 weeks. The mice were asymptomatic throughout this time, but were developing a pre- or early-disease state. The mice were treated, starting at the time of initiation of the high-fat diet, with HCQ (100 mg/kg/day), DHCQ (100 mg/kg/day), or vehicle control, to prevent the development of NAFLD and NASH. After 6 weeks of treatment with DHCQ, HCQ and vehicle (control) while on a high-fat diet, blood was collected and mice sacrificed for histological analysis of liver pathology. Livers from the mice in each treatment group were fixed, embedded, sectioned, stained with H&E, representative micrographs are presented in FIG. 7A (both 10× and 20× magnification), “liver scores” determined using an established scoring system for NASH (Brunt et al, Nonalcoholic steatohepatitis: a proposal for grading and staging the histological lesions, American J. Gastroenterology, 1999, 94(9):2467-74).

[3] = 100 mg/kg/day, 6 weeks, vs vehicle

SMILES	ARPE-19 cellular toxicity by microscopy (ARPE-19 cells; human, 24 h, 10 µg/ml)	TNF production [1]	liver score (NASH histology) ([2]; 6 weeks)	serum ALT [2, 3]	serum AST [2, 3]	liver score, AST and ALT compared to HCQ ([2]; P<0.05 two-tailed T test)	ARPE-19 cellular toxicity by microscopy (ARPE-19 cells)
CC(CCCNCCO)Nc1ccnc2cc(Cl)ccc12 (stereo not drawn) [DHCQ, desethylhydroxychloroquine]	less ARPE-19 cellular toxicity	reduced PMBC TNF production	statistically reduced	prevents and reduces abnormal elevations	prevents and reduces abnormal elevations	statistically superior activity to HCQ	
CCN(CCO)CCCC(C)Nc1ccnc2cc(Cl)ccc12 (stereo not drawn) [HCQ, hydroxychloroquine]		reduced PMBC TNF production	statistically reduced				increased cytotoxicity and death
